Data reported in article PMC8205030, “Methoxy and bromo scans on N-(5-methoxyphenyl) methoxybenzenesulphonamides reveal potent cytotoxic compounds, especially against the human breast adenocarcinoma MCF7 cell line” (Journal of Enzyme Inhibition and Medicinal Chemistry, 2021).

Legend:
[1] = target: T1, microtubular protein isolated from calf brain (Bos taurus, UniProt P81947+Q6B856); test: Inhibition of tubulin polymerisation (turbidity); assay type: biochemical
T1 construct: isolated from calf brain according to the modified Shelanski method; from tissue; host or cells: calf brain

HT-29 cells = test: Cell cycle analysis (PI, flow cytometry), HT-29; assay type: cell-based, human
Procedure: (§1) MCF7, HeLa, and HT-29 cell cycle analyses were performed by quantifying the DNA content by flow cytometry. Cells in the exponential growth phase at 2 × 10^4 cells/mL were seeded in 24-well plates (1 ml/well). After 24 h incubation, cells were treated with compound 25 at 87.5 or 175 nM. After 24, 48, and 72 h treatments, live and dead cells were collected and fixed in ice-cold ethanol:PBS (7:3) and stored at 4 °C for later use. Cells were rehydrated with phosphate-buffered saline (PBS), treated with 100 µg/mL RNase A (Sigma-Aldrich Co., St. Louis, MO, USA), and stained overnight in darkness at room temperature with 50 µg/mL propidium iodide (PI) (Sigma-Aldrich Co.). Cell cycle profiles were then analysed by flow cytometry using BD Accuri™ C6 Plus Flow Cytometer (BD Biosciences, San José, CA, USA). Data were analysed with BD Accuri™ C6 Software (version 1.0.264.21, BD Biosciences, San José, CA, USA) and compared to control cells treated with 0.5% (v/v) DMSO. Compounds were dissolved in DMSO and the final solvent concentrations never exceeded 0.5% (v/v).

p-62 in HT-29 cells = test: Western blot of autophagosome marker p-62, HT-29; assay type: cell-based, human; details: HT-29, 175 nM, 24 h
Procedure: MCF7, HeLa and HT-29 cells in an exponential growth phase at 2 × 10^4 cells/mL were seeded in Petri dishes (20 × 100 mm) (10 ml/dish). After 24 h incubation, cells were treated with compound 25 at 175 nM, and the levels of p-62 in treated and untreated cells were measured at 24 h post-treatment. The culture medium was removed, cells were washed with PBS and resuspended in 1 ml lysis buffer (50 mM Tris, 130 mM NaCl, 1 mM EDTA, 1% Triton X-100) containing protease inhibitors (Complete, Roche Applied Science, Indianapolis). Cells were harvested and incubated with lysis buffer for 30 min at 4 °C in constant agitation. Cell extracts were centrifuged at 12,000 rpm for 15 min at 4 °C and the supernatants were stored at −80 °C. Protein concentrations were determined using Bradford (BioRad, Hercules, CA) method taking BSA (Bovine Serum Albumin) as standard. Protein extracts were used for electrophoresis mixing with loading buffer (4% SDS, 0.05% bromophenol blue, 20% glycerine, 2% β-mercaptoethanol, and Tris 100 mM at pH 6.8). Proteins were then denatured at 95 °C for 7 min. Protein samples (50 μg/lane) were subjected to electrophoresis on 8% acrylamide gel and SDS-PAGE running buffer at constant voltage (140 V). Then, acrylamide gels were transferred to a PVDF membrane (Merck Millipore, Burlington, Massachusetts, USA) using a semi-dry transfer system for 30 min at constant voltage (15 V). […]

HeLa cells = test: Cell cycle analysis (PI, flow cytometry), HeLa; assay type: cell-based, human
Procedure: as §1

MCF7 cells = test: Cell cycle analysis (PI, flow cytometry), MCF7; assay type: cell-based, human
Procedure: as §1

[2] = HT-29, 48 h, concentration not specified
[3] = MCF7, 175 nM (higher dose), 48 h
[4] = MCF7, 175 nM (higher dose), 72 h

T1 sequence (Q6B856 whole entry): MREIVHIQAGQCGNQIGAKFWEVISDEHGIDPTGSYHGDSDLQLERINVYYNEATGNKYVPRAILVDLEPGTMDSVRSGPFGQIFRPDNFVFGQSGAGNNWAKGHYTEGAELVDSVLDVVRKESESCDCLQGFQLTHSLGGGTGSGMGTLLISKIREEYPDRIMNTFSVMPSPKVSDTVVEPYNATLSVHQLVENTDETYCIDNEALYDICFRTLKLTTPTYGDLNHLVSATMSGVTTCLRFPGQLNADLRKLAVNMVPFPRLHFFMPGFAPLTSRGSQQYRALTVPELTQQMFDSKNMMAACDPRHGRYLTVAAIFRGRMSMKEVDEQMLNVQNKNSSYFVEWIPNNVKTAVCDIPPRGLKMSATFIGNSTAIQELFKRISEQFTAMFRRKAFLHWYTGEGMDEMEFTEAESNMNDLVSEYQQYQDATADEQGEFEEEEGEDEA
T1 sequence (P81947 whole entry): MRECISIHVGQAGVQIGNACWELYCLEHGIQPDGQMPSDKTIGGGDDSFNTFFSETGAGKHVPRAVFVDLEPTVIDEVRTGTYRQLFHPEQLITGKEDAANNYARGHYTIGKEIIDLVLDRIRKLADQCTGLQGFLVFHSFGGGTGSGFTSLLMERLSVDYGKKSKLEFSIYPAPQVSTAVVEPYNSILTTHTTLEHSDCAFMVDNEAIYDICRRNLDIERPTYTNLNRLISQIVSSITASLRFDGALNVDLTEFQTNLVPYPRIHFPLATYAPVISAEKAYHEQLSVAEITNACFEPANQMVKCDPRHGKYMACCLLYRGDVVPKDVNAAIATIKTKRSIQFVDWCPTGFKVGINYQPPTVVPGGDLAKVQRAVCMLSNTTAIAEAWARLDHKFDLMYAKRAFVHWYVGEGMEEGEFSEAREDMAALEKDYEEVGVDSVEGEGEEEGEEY

Q: `COc1ccc(S(=O)(=O)N(CC#N)c2cc(OC)c(Br)cc2OC)cc1` [Compound 25, N-(4-bromo-2,5-dimethoxyphenyl)-N-(cyanomethyl)-4-methoxybenzenesulphonamide] was tested. Which “TPI % 10 µM” value ([1]; 10 µM compound, 1.5 mg/mL microtubular protein) did it give?
A: 51%

Q: And the IC50 ([1]; in vitro tubulin polymerisation inhibition, read-out: TPI IC50)?
A: 7.6 µM

Q: And the “Cells at G2/M phase” value (HT-29 cells; HT-29, 87.5 nM, 24 h)?
A: 90%

Q: What about the “Cells at G2/M phase” value (HT-29 cells; HT-29, 87.5 nM, 72 h) of the same compound?
A: 58%

Q: And the subG0/G1 population (HT-29 cells; HT-29, 87.5 nM, 72 h)?
A: 23%

Q: And the “Cells at G2/M phase” value (HT-29 cells; HT-29, 175 nM, 24 h)?
A: 83%

Q: What about the “Cells at G2/M phase” value (HT-29 cells; HT-29, 175 nM, 72 h) of the same compound?
A: 54%

Q: And the subG0/G1 population (HT-29 cells; HT-29, 175 nM, 72 h)?
A: 31%

Q: And the “Cells at G2/M phase” value (HT-29 cells; [2])?
A: 84%

Q: What about the subG0/G1 population (HT-29 cells; [2]) of the same compound?
A: 9%

Q: And the p-62 levels (p-62 in HT-29 cells)?
A: almost complete reduction in the expression of p-62

Q: And the “Cells at G2/M phase” value (HeLa cells; 87.5 nM, 24 h)?
A: 82%

Q: What about the “Cells at G2/M phase” value (HeLa cells; 87.5 nM, 48 h) of the same compound?
A: 54%

Q: What about the subG0/G1 population (HeLa cells; 87.5 nM, 48 h) of the same compound?
A: 34%

Q: And the “Cells at G2/M phase” value (HeLa cells; 87.5 nM, 72 h)?
A: 41%

Q: What about the “Cells at G2/M phase” value (HeLa cells; 175 nM, 24 h) of the same compound?
A: 86%

Q: What about the “Cells at G2/M phase” value (HeLa cells; 175 nM, 48 h) of the same compound?
A: 48%

Q: What about the subG0/G1 population (HeLa cells; 175 nM, 48 h) of the same compound?
A: 29%

Q: What about the “Cells at G2/M phase” value (HeLa cells; 175 nM, 72 h) of the same compound?
A: 49%

Q: And the subG0/G1 population (HeLa cells; 72 h, one value printed for 87.5 and 175 nM)?
A: 38%

Q: And the “Cells at G2/M phase” value (MCF7 cells; MCF7, 87.5 nM, 24 h)?
A: 66%

Q: What about the subG0/G1 population (MCF7 cells; MCF7, 87.5 nM, 24 h) of the same compound?
A: 12%

Q: What about the “Cells at G2/M phase” value (MCF7 cells; [3]) of the same compound?
A: 55%

Q: And the subG0/G1 population (MCF7 cells; [3])?
A: 24%

Q: And the “Cells at G2/M phase” value (MCF7 cells; [4])?
A: 58%

Q: What about the subG0/G1 population (MCF7 cells; [4]) of the same compound?
A: 26%

Q: What about the “Cells at G2/M phase” value (MCF7 cells; MCF7, 175 nM, 24 h) of the same compound?
A: 60%

Q: And the subG0/G1 population (MCF7 cells; MCF7, 175 nM, 24 h)?
A: 16%
